Each structure is given as a SMILES string. Counter-ions that a name gives are not always drawn.

The target of one assay is ROCK2 (Homo sapiens, UniProt O75116). Put plainly: ROCK2 kinase inhibition assay (LABCHIP 3000 Reader, FITC peptide substrate).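 Note: rho kinase reaction read by separating phosphorylated from unphosphorylated peptide on chip, with inhibition of kinase activity computed per concentration across a dose-response series.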
Sequence of ROCK2 (O75116 whole entry, species assumed): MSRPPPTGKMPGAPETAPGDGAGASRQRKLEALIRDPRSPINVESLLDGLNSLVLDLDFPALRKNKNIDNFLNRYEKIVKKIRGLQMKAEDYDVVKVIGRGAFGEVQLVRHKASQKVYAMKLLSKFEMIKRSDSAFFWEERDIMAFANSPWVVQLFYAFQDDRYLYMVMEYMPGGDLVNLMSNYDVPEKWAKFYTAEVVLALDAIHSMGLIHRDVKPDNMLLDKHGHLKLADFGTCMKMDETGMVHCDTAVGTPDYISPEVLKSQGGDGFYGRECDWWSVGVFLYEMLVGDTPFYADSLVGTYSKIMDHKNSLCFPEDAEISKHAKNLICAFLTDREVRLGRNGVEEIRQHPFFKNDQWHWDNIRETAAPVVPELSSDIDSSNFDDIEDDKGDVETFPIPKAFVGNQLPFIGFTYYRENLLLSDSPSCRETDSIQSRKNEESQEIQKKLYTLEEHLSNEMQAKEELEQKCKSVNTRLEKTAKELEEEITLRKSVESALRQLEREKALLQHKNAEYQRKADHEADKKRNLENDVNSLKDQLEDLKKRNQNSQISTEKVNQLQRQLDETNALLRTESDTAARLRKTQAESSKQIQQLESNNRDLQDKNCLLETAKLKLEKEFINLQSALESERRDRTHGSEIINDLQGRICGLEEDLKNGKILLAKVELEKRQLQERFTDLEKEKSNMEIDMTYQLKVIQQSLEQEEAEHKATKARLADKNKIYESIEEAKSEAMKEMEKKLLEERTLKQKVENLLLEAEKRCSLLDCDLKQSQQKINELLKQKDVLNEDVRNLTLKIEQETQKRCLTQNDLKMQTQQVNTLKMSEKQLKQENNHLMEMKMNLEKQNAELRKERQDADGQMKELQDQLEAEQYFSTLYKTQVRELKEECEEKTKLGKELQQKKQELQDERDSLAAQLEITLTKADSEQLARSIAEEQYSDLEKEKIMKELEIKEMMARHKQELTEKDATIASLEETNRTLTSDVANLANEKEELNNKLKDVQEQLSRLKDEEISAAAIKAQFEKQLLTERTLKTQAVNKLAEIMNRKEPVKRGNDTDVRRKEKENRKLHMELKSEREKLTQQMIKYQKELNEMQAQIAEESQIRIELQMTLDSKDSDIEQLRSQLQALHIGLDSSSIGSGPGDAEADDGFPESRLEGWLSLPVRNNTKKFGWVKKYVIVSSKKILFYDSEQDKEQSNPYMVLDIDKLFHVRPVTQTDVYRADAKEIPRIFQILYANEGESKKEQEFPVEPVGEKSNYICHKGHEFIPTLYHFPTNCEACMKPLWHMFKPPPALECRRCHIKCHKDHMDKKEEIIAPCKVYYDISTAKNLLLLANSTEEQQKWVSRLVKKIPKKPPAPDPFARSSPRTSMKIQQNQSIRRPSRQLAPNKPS
Conditions: not given
In general, IC50 refers to the concentration that inhibits the measured activity by half. As to `CC(C)(O)COc1ccc2c(C(=O)NC3CC4(C3)CC(Oc3cc(-c5ccc(S(C)(=O)=O)cc5)ccc3C(N)=O)C4)cnn2c1` (centres unmarked) [Example 286, N-(6-((4-carbamoyl-4′-(methylsulfonyl)-[1,1′-biphenyl]-3-yl)oxy)spiro[3.3]heptan-2-yl)-6-(2-hydroxy-2-methylpropoxy)pyrazolo[1,5-a]pyridine-3-carboxamide], the IC50 lay within 5 to 50 nM. On the same count and under the same terms, to `NC(=O)c1cccnc1O[C@H]1CC2(C[C@H](NC(=O)c3cnn4cc(N5CC6(COC6)C5)ccc34)C2)C1` (stereo partly drawn) [Example 349, N-((aR)-6-((3-carbamoylpyridin-2-yl)oxy)spiro[3.3]heptan-2-yl)-6-(2-oxa-6-azaspiro[3.3]heptan-6-yl)pyrazolo[1,5-a]pyridine-3-carboxamide] belongs 5 to 50 nM; to `CC(C)(O)COc1ccc2c(C(=O)NC3CC4(C3)CC(Oc3ccccc3C(N)=O)C4)cnn2c1` (centres unmarked) [Example 3, N-(6-(2-carbamoylphenoxy)spiro[3.3]heptan-2-yl)-6-(2-hydroxy-2-methylpropoxy)pyrazolo[1,5-a]pyridine-3-carboxamide], 5 to 50 nM; to `CN1CCN(c2ccc(C(N)=O)c(OC3CC4(CC(NC(=O)c5cnn6cc(OCC(C)(C)O)ccc56)C4)C3)c2)CC1` (centres unmarked) [Example 224, N-(6-(2-carbamoyl-5-(4-methylpiperazin-1-yl)phenoxy)spiro[3.3]heptan-2-yl)-6-(2-hydroxy-2-methylpropoxy)pyrazolo[1,5-a]pyridine-3-carboxamide], 5 to 50 nM.

`COCCOC(=O)Nc1ccc(-c2ccc(C(N)=O)c(OC3CC4(CC(NC(=O)c5cnn6cc(OCC(C)(C)O)ccc56)C4)C3)c2)cn1` (centres unmarked) [Example 233, 2-methoxyethyl (5-(4-carbamoyl-3-((6-(6-(2-hydroxy-2-methylpropoxy)pyrazolo[1,5-a]pyridine-3-carboxamido)spiro[3.3]heptan-2-yl)oxy)phenyl)pyridin-2-yl)carbamate] gave an IC50 of 5 to 50 nM. Still for that read-out and setting: to `CC(C)(O)COc1ccc2c(C(=O)NC3CC4(C3)CC(Oc3cc(-c5cccc(C(F)(F)F)c5)ccc3C(N)=O)C4)cnn2c1` (centres unmarked) [Example 243, N-(6-((4-carbamoyl-3′-(trifluoromethyl)-[1,1′-biphenyl]-3-yl)oxy)spiro[3.3]heptan-2-yl)-6-(2-hydroxy-2-methylpropoxy)pyrazolo[1,5-a]pyridine-3-carboxamide] belongs 50 to 250 nM. In turn, `[H][C@]1(Oc2ncccc2C(N)=O)C[C@@]2(C[C@H](NC(=O)c3cnn(-c4ccccc4)c3C)C2)C1` (some centres unmarked) [Example 379] had an IC50 of 50 to 250 nM.

As for `CC(C)(O)COc1ccc2c(C(=O)NC3CC4(C3)CC(Oc3cc(C5CC5)ccc3C(N)=O)C4)cnn2c1C1CC1` (centres unmarked) [Example 274, N-(6-(2-carbamoyl-5-cyclopropylphenoxy)spiro[3.3]heptan-2-yl)-7-cyclopropyl-6-(2-hydroxy-2-methylpropoxy)pyrazolo[1,5-a]pyridine-3-carboxamide], the IC50 was less than 5 nM.

With `NC(=O)c1cccnc1OC1CC2(CC(NC(=O)c3cnn(-c4ccccc4Cl)c3)C2)C1` (centres unmarked) [Example 397], the IC50 was 5 to 50 nM. Same read-out and setting: to `CC(C)(O)COc1ccc2c(C(=O)NC3CC4(C3)CC(Oc3cc(-c5ccc(C(C)(C)O)nc5)ccc3C(N)=O)C4)cnn2c1` (centres unmarked) [Example 234, N-(6-(2-carbamoyl-5-(6-(2-hydroxypropan-2-yl)pyridin-3-yl)phenoxy)spiro[3.3]heptan-2-yl)-6-(2-hydroxy-2-methylpropoxy)pyrazolo[1,5-a]pyridine-3-carboxamide] belongs 50 to 250 nM; to `[H][C@]1(Oc2ncccc2C(N)=O)C[C@@]2(C[C@H](NC(=O)c3cnc4c(C5CC5)c(OCC(C)(C)F)ccn34)C2)C1` (stereo partly drawn) [Example 47, N-((aR)-6-((3-carbamoylpyridin-2-yl)oxy)spiro[3.3]heptan-2-yl)-8-cyclopropyl-7-(2-fluoro-2-methylpropoxy)imidazo[1,2-a]pyridine-3-carboxamide], 5 to 50 nM. Still for that read-out and setting: to `CC(C)(O)COc1ccc2c(C(=O)NC3CC4(C3)CC(Oc3nccnc3C(N)=O)C4)cnn2c1` (centres unmarked) [Example 7, N-(6-((3-carbamoylpyrazin-2-yl)oxy)spiro[3.3]heptan-2-yl)-6-(2-hydroxy-2-methylpropoxy)pyrazolo[1,5-a]pyridine-3-carboxamide] belongs 250 to 2500 nM; to `NC(=O)c1cccnc1O[C@H]1CC2(C[C@H](NC(=O)c3cnn4cc(N5CC[C@@H](F)C5)ccc34)C2)C1` (stereo partly drawn) [Example 318, N-((aR)-6-((3-carbamoylpyridin-2-yl)oxy)spiro[3.3]heptan-2-yl)-6-((R)-3-fluoropyrrolidin-1-yl)pyrazolo[1,5-a]pyridine-3-carboxamide], less than 5 nM; to `N#Cc1ccc2nc(C(=O)N[C@H]3CC4(C3)C[C@H](Oc3ncccc3C(N)=O)C4)cn2c1` (stereo partly drawn) [Example 76, N-((aR)-6-((3-carbamoylpyridin-2-yl)oxy)spiro-[3.3]heptan-2-yl)-6-cyanoimidazo-[1,2-a]pyridine-2-carboxamide, trifluoroacetate], 250 to 2500 nM.

For the molecule `[H][C@]1(Oc2ncccc2C(N)=O)C[C@@]2(C[C@H](NC(=O)c3nnn4cc(Br)ccc34)C2)C1` (stereo partly drawn) [Example 368, 6-bromo-N-((aR)-6-((3-carbamoylpyridin-2-yl)oxy)spiro[3.3]heptan-2-yl)-[1,2,3]triazolo[1,5-a]pyridine-3-carboxamide], the IC50 was in the range of 5 to 50 nM. Still for that read-out and setting: to `[H][C@]1(Oc2ccncc2C(N)=O)C[C@@]2(C[C@H](NC(=O)c3cnn4cc(OCC(C)(C)O)ccc34)C2)C1` (stereo partly drawn) [Example 44, N-((aR)-6-((3-carbamoylpyridin-4-yl)oxy)spiro[3.3]heptan-2-yl)-6-(2-hydroxy-2-methylpropoxy)pyrazolo[1,5-a]pyridine-3-carboxamide] belongs 250 to 2500 nM; to `COc1cccc(-n2cc(C(=O)NC3CC4(C3)CC(Oc3ncccc3C(N)=O)C4)cn2)c1` (centres unmarked) [Example 395], 5 to 50 nM; to `CC(C)(O)COc1ccc2c(C(=O)NC3CC4(C3)CC(Oc3cc(-c5cccc(C(F)F)c5)ccc3C(N)=O)C4)cnn2c1` (centres unmarked) [Example 241, N-(6-((4-carbamoyl-3′-(difluoromethyl)-[1,1′-biphenyl]-3-yl)oxy)spiro[3.3]heptan-2-yl)-6-(2-hydroxy-2-methylpropoxy)pyrazolo[1,5-a]pyridine-3-carboxamide], 5 to 50 nM.

Regarding `NC(=O)c1ccccc1OC1CC2(CC(NC(=O)OCc3ccccc3)C2)C1` [Example 14, benzyl ((aR)-6-(2-carbamoylphenoxy)spiro[3.3]heptan-2-yl)carbamate], the IC50 is 250 to 2500 nM. On the same count and under the same terms, in the case of `Cn1cc(-c2cc(C#N)cc(C(=O)N[C@H]3CC4(C3)C[C@H](Oc3ncccc3C(N)=O)C4)c2)c(C(F)(F)F)n1` (stereo partly drawn) [Example 184, 2-(((aR)-6-(3-cyano-5-(1-methyl-3-(trifluoromethyl)-1H-pyrazol-4-yl)benzamido)spiro[3.3]heptan-2-yl)oxy)nicotinamide, trifluoroacetate] it was 5 to 50 nM; in that of `CC(C)(O)COc1ccc2c(C(=O)NC3CC4(C3)CC(Oc3cc(-c5cccc(CO)c5)ccc3C(N)=O)C4)cnn2c1` (centres unmarked) [Example 247, N-(6-((4-carbamoyl-3′-(hydroxymethyl)-[1,1′-biphenyl]-3-yl)oxy)spiro[3.3]heptan-2-yl)-6-(2-hydroxy-2-methylpropoxy)pyrazolo[1,5-a]pyridine-3-carboxamide], less than 5 nM. As to `NC(=O)c1cccnc1O[C@H]1CC2(C[C@H](NC(=O)c3cnc4cc(OC(CF)CF)ccn34)C2)C1` (stereo partly drawn) [Example 332, N-((aR)-6-((3-carbamoylpyridin-2-yl)oxy)spiro[3.3]heptan-2-yl)-7-((1,3-difluoropropan-2-yl)oxy)imidazo[1,2-a]pyridine-3-carboxamide], the IC50 lay in the range of 5 to 50 nM. The same measure, in the same setting: in the case of `COc1ccccc1-n1cc(C(=O)NC2CC3(C2)CC(Oc2ncccc2C(N)=O)C3)cn1` (centres unmarked) [Example 398] it was 5 to 50 nM.

Consider `CC(C)(O)COc1ccc2c(C(=O)N[C@H]3CC4(C3)C[C@H](Oc3ncccc3C(N)=O)C4)cnn2c1` (stereo partly drawn) [Example 64, N-((aR)-6-((3-carbamoylpyridin-2-yl)oxy)spiro[3.3]-heptan-2-yl)-6-(2-hydroxy-2-methylpropoxy) pyrazolo-[1,5-a]pyridine-3-carboxamide, trifluoroacetate], for which the IC50 was in the range of 5 to 50 nM. Same read-out and setting: in the case of `[2H]C([2H])([2H])n1cc(-c2cc(C(=O)N[C@H]3CC4(C3)C[C@H](Oc3ncccc3C(N)=O)C4)cc(S(C)(=O)=O)c2)cn1` (some centres unmarked) [Example 53, 2-{[(4s)-6-{3-methanesulfonyl-5-[1-(^2H3)methyl-1H-pyrazol-4-yl]benzamido}spiro[3.3]heptan-2-yl]oxy}pyridine-3-carboxamide] it was 5 to 50 nM; in that of `NC(=O)c1cccnc1O[C@H]1CC2(C[C@H](NC(=O)c3ccc(-n4cccn4)cc3)C2)C1` (stereo partly drawn) [Example 74, 2-((aR)-6-(4-(1H-pyrazol-1-yl)benzamido)spiro[3.3]heptan-2-yl)oxy) nicotinamide, trifluoroacetate], 250 to 2500 nM.

The assay is the same for the next values; noted with them: read-out: ROCK2 Activity (ROCK2 IC50); 5 μM ATP, 1.5 μM peptide substrate, pH 7.5.
`CC(C)(C(N)=O)n1nc(C(=O)NC2CC3(C2)CC(Oc2ncccc2C(N)=O)C3)c2ccc(F)cc21` [Example 402, 1-(1-amino-2-methyl-1-oxopropan-2-yl)-N-((aR)-6-((3-carbamoylpyridin-2-yl)oxy)spiro[3.3]heptan-2-yl)-6-fluoro-1H-indazole-3-carboxamide, TFA]: the IC50 is 5 to 50 nM.

For `CC(=O)N(C)Cc1ccc2c(C(=O)NC3CC4(C3)CC(Oc3ncccc3C(N)=O)C4)nc(C(F)F)n2c1` [Example 453, N-((aR)-6-((3-carbamoylpyridin-2-yl)oxy)spiro[3.3]heptan-2-yl)-3-(difluoromethyl)-6-((N-methylacetamido)methyl)imidazo[1,5-a]pyridine-1-carboxamide], the IC50 was in the range of 5 to 50 nM.

Regarding `Cc1nn(C)cc1-c1ccc2c(C(=O)NC3CC4(C3)CC(Oc3ncccc3C(N)=O)C4)nc(C)n2c1` [Example 459, N-((aR)-6-((3-carbamoylpyridin-2-yl)oxy)spiro[3.3]heptan-2-yl)-6-(1,3-dimethyl-1H-pyrazol-4-yl)-3-methylimidazo[1,5-a]pyridine-1-carboxamide], the IC50 fell in the range of 5 to 50 nM.

The values above are taken from US10829501B2 (BRISTOL-MYERS SQUIBB COMPANY, priority 2016, dated 2020).
